# Experimental data: US20230106943A1, “ENGINEERED ANTIMICROBIAL PEPTIDES AND USAGE THEREOF” (Peptilogics, Inc., priority 2021, published 2023)
# Marks after values point to notes of the source that are not given here. No end group written: not given here.
# Experiment: Example 4 stability of concentrated solutions: HPLC-UV Assay/RS (method 78917)
# Type: physicochemical
# Settings: for HPLC-UV Assay / Related Substances Purity / Related Substances Total Impurities: 81.4 mg/mL solution
# Method: The peptide formulation of SEQ ID NO: 1 dissolved in a saline solution with a pH of 5.0±0.1 was tested for stability under either −20° C. or 40° C. with 75% relative humidity (RH). […]
# [1] = 36.7 mg/mL solution, −20° C., 1 Month
# [2] = 36.7 mg/mL solution, −20° C., 2 Month
# [3] = 36.7 mg/mL solution, −20° C., 3 Month
# [4] = 36.7 mg/mL solution, −20° C., 6 Month
# [5] = 36.7 mg/mL solution, −20° C., 9 Month
# [6] = 72.4 mg/mL solution, 40° C. and 75% RH, 1 Month
# [7] = 72.4 mg/mL solution, 40° C. and 75% RH, 2 Month
# [8] = 72.4 mg/mL solution, 40° C. and 75% RH, 3 Month
# [9] = 72.4 mg/mL solution, 40° C. and 75% RH, 6 Month
# [10] = 72.4 mg/mL solution, −20° C., 0 Month
# [11] = 72.4 mg/mL solution, −20° C., 1 Month
# [12] = 72.4 mg/mL solution, −20° C., 2 Month
# [13] = 72.4 mg/mL solution, −20° C., 3 Month
# [14] = 72.4 mg/mL solution, −20° C., 6 Month
# [15] = 72.4 mg/mL solution, −20° C., 9 Month
substance,measurement,setting,value
RRWVRRVRRVWRRVVRVVRRWVRR-NH2 [SEQ ID NO: 1],SEQ ID NO: 1 % area (Inj-1),[1],99.13%
same,SEQ ID NO: 1 % area (Inj-2),[1],99.12%
same,SEQ ID NO: 1 Mean % Area,[1],99.1%
same,HPLC-UV Assay/RS % Assay,[2],103.2%
same,HPLC-UV Assay/RS % Purity,[2],99%
same,HPLC-UV Assay/RS % Total Impurities,[2],0.9%
same,"HPLC-UV Assay/RS Impurities RRT/%, RRT 1.02",[2],1.02/0.9%
same,HPLC-UV Assay/RS % Assay,[3],101.7%
same,HPLC-UV Assay/RS % Purity,[3],99%
same,HPLC-UV Assay/RS % Total Impurities,[3],0.9%
same,"HPLC-UV Assay/RS Impurities RRT/%, RRT 1.02",[3],1.02/0.9%
same,HPLC-UV Assay/RS % Assay,[4],99.8%
same,HPLC-UV Assay/RS % Purity,[4],99%
same,HPLC-UV Assay/RS % Total Impurities,[4],0.9%
same,"HPLC-UV Assay/RS Impurities RRT/%, RRT 1.02",[4],1.02/0.9%
same,HPLC-UV Assay/RS % Assay,[5],96.9%
same,HPLC-UV Assay/RS % Purity,[5],100%
same,HPLC-UV Assay/RS % Total Impurities,[5],0.3%
same,"HPLC-UV Assay/RS Impurities RRT/%, RRT 1.01",[5],1.01/0.3%
same,% Purity,[6],99%
same,% Total Impurities,[6],1.1%
same,HPLC-UV % Assay,[6],95.9%
same,RRT 1.02 impurity % area (Inj-1),[6],0.92 % area
same,RRT 1.02 impurity % area (Inj-2),[6],0.90 % area
same,RRT 1.02 impurity Mean % Area,[6],0.9 % Area
same,RRT 1.32 impurity % area (Inj-1),[6],0.17 % area
same,RRT 1.32 impurity % area (Inj-2),[6],0.18 % area
same,RRT 1.32 impurity Mean % Area,[6],0.2 % Area
same,SEQ ID NO: 1 peak % area (Inj-1),[6],98.91 % area
same,SEQ ID NO: 1 peak % area (Inj-2),[6],98.92 % area
same,SEQ ID NO: 1 peak Mean % Area,[6],98.9 % Area
same,% Purity,[7],99%
same,% Total Impurities,[7],1.5%
same,HPLC-UV % Assay,[7],98.4%
same,% Purity,[8],98%
same,% Total Impurities,[8],1.8%
same,HPLC-UV % Assay,[8],90.5%
same,% Purity,[9],96%
same,% Total Impurities,[9],3.6%
same,HPLC-UV % Assay,[9],87.0* %
same,% Puritvy,[10],99.1%
same,% Total Impurities,[10],1.0%
same,HPLC-UV % Assay,[10],94.2%
same,RRT 1.02 impurity % area (Inj-1),[10],0.97 % area
same,RRT 1.02 impurity % area (Inj-2),[10],0.93 % area
same,RRT 1.02 impurity Mean % Area,[10],1.0 % Area
same,SEQ ID NO: 1 peak % area (Inj-1),[10],99.03 % area
same,SEQ ID NO: 1 peak % area (Inj-2),[10],99.07 % area
same,SEQ ID NO: 1 peak Mean % Area,[10],99.1 % Area
same,% Puritvy,[11],99%
same,HPLC-UV % Assay,[11],97.7%
same,RRT 1.02 impurity % area (Inj-1),[11],0.88 % area
same,RRT 1.02 impurity % area (Inj-2),[11],0.87 % area
same,RRT 1.02 impurity Mean % Area,[11],0.9 % Area
same,SEQ ID NO: 1 peak % area (Inj-1),[11],99.12 % area
same,SEQ ID NO: 1 peak % area (Inj-2),[11],99.13 % area
same,SEQ ID NO: 1 peak Mean % Area,[11],99.1 % Area
same,Total % Impurities,[11],0.9%
same,% Purity,[12],99%
same,% Total Impurities,[12],0.9%
same,HPLC-UV % Assay,[12],101.1%
same,% Purity,[13],99%
same,% Total Impurities,[13],1.0%
same,HPLC-UV % Assay,[13],97.4%
same,% Purity,[14],99%
same,% Total Impurities,[14],0.9%
same,HPLC-UV % Assay,[14],95.1%
same,% Purity,[15],100%
same,% Total Impurities,[15],0.5%
same,HPLC-UV % Assay,[15],95.9%
same,HPLC-UV Assay,"40° C. and 75% RH, 1 Month",102.5 % LC
same,Related Substances Purity,"40° C. and 75% RH, 1 Month",98%
same,Related Substances Total Impurities,"40° C. and 75% RH, 1 Month",1.7%
same,HPLC-UV Assay,"40° C. and 75% RH, 2 Month",102.6 % LC
same,Related Substances Purity,"40° C. and 75% RH, 2 Month",98%
same,Related Substances Total Impurities,"40° C. and 75% RH, 2 Month",2.4%
same,HPLC-UV Assay,"40° C. and 75% RH, 3 Month",92.0♦ % LC
same,Related Substances Purity,"40° C. and 75% RH, 3 Month",97%
same,Related Substances Total Impurities,"40° C. and 75% RH, 3 Month",2.6%
same,HPLC-UV Assay,"−20° C., 0 Month",108.6 % LC
same,Related Substances Purity,"−20° C., 0 Month",99%
same,Related Substances Total Impurities,"−20° C., 0 Month",0.9%
same,HPLC-UV Assay,"−20° C., 1 Month",103.8 % LC
same,Related Substances Purity,"−20° C., 1 Month",99%
same,Related Substances Total Impurities,"−20° C., 1 Month",1.0%
same,HPLC-UV Assay,"−20° C., 2 Month",107.8 % LC
same,Related Substances Purity,"−20° C., 2 Month",99%
same,Related Substances Total Impurities,"−20° C., 2 Month",0.9%
same,HPLC-UV Assay,"−20° C., 3 Month",104.7 % LC
same,Related Substances Purity,"−20° C., 3 Month",100%
same,Related Substances Total Impurities,"−20° C., 3 Month",0.3%
